We go through one compound from the NIST ThermoML archive (doi:10.1021/je800837z).

Numbers after ± are expanded uncertainties.

The conditions of this data set: Crystal; DTA.

Turning to `CCN1CCN(C(=O)N[C@H](C(=O)N[C@H]2C(=O)N3C(C(=O)[O-])=C(CSc4nnnn4C)CS[C@@H]23)c2ccc(O)cc2)C(=O)C1=O.[Na+]`, the Normal melting temperature amounted to 180.00 ± 1.1 °C.
